Where two headings read alike, the source gives them in different places.
How the values were obtained:
[1] = acute toxicity by intravenous administration in mice; settings: mouse, in vivo, i.v., mice not fed for 12 hours
Experimental: The acute toxicity of the compounds of this invention having the formula (I) was determined by intravenous administration (i.v.) in mice which had not been fed for 12 hours prior to the test. LD50 values (50% lethal dose) obtained are set forth below:
In the same manner as above, LD50 values were determined for all the other test compounds and the LD50 values obtained were at least 500 mg/kg.

[2] = tested on: Klebsiella pneumoniae ST-101; experiment: antimicrobial activity, serial dilution method on agar plate; type: cell-based
Summary of the method: (§1)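 Agar-plate serial dilution in Heart Infusion agar; inocula prepared at 1×10^8 cells/ml (O.D. 660 mμ=0.07 to 0.16) and at 1×10^6 cells/ml by dilution. Values are minimum inhibitory concentrations in mcg/ml.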

[3] = tested on: Escherichia Coli NIHJ JC-2 (IFO 12734); experiment: as above; type: cell-based; settings: Escherichia coli, read-out: Minimum Inhibitory Concentration
Summary of the method: as §1

[4] = tested on: Salmonella typhi 0-901 (NCTC 8393); experiment: as above; type: cell-based; settings: Salmonella enterica
Summary of the method: as §1

[5] = tested on: Yersinia enterocolitica 0-3; experiment: as above; type: cell-based
Summary of the method: as §1

Klebsiella pneumoniae = experiment: as above; type: cell-based
Summary of the method: as §1

Escherichia Coli NIHJ = experiment: as above; type: cell-based
Summary of the method: as §1

[6] = tested on: Serattia marcescens IFO 12648; experiment: as above; type: cell-based
Summary of the method: as §1

[7] = tested on: Pseudomonas aeruginosa ATCC 10145; experiment: as above; type: cell-based
Summary of the method: as §1

[8] = tested on: Proteus morganii IID Kono; experiment: as above; type: cell-based; settings: Morganella morganii
Summary of the method: as §1

Proteus rettgeri NIH 96 = experiment: as above; type: cell-based; settings: Providencia rettgeri
Summary of the method: as §1

[9] = tested on: Proteus vulgaris IID OX-19; experiment: as above; type: cell-based; settings: read-out: Minimum Inhibitory Concentration
Summary of the method: as §1

Shigella Sonnei EW 33 = experiment: as above; type: cell-based; settings: read-out: Minimum Inhibitory Concentration
Summary of the method: as §1

[10] = tested on: Staphylococcus aureus FDA 209 P; experiment: as above; type: cell-based
Summary of the method: as §1

[11] = tested on: Bacillus subtilis PCI 219; experiment: as above; type: cell-based
Summary of the method: as §1

[12] = tested on: Aeromonas salmonicida IFO 12718; experiment: antimicrobial activity on bacteria which cause infectious diseases in fish; type: cell-based
Experimental: (§2) The antimicrobial activity of the following test compounds on various test organisms listed below was determined by the serial dilution method on agar plate (Heart Infusion agar produced by Difco Co.) (see CHEMOTHERAPY 22, pp. 1126-1128 (1974)), and the minimum inhibitory concentrations (mcg/ml) obtained are shown in Table 1 below.
(§3) A sample of each test organism was prepared so that the population of the organism was 1×10^8 cells/ml (O.D. 660 mμ=0.07 to 0.16) and 1×10^6 cells/ml (which was obtained by diluting the above 1×10^8 cells/ml preparation).
(§4) In the same manner as above, the antimicrobial activity of the following compounds on various test organisms which cause infectious diseases in fish was determined.

[13] = tested on: Pseudomonas fluorescens IFO 12568; experiment: as above; type: cell-based
Experimental: as §2, §3, §4

[14] = tested on: Vibrio anguillarum IFO 13266; experiment: as above; type: cell-based
Experimental: as §2, §3, §4

[15] = tested on: Pseudomonas fluorescens IFO 12180; experiment: as above; type: cell-based; settings: IFO12180, read-out: Minimum Inhibitory Concentration
Experimental: as §2, §3, §4

[16] = tested on: Aeromonas hydrophila IFO 12981; experiment: as above; type: cell-based
Experimental: as §2, §3, §4

[17] = tested on: Aeromonas salmonicida IFO 12659; experiment: as above; type: cell-based
Experimental: as §2, §3, §4

[18] = tested on: Aeromonas hydrophila IFO 12658; experiment: as above; type: cell-based
Experimental: as §2, §3, §4

[19] = tested on: Vibrio anguillarum IFO 12710; experiment: as above; type: cell-based
Experimental: as §2, §3, §4

[20] = tested on: Pseudomonas aeruginosa NCTC 10490; experiment: antimicrobial activity, serial dilution method on agar plate; type: cell-based; settings: read-out: Minimum Inhibitory Concentration
Summary of the method: as §1

[21] = tested on: Streptococcus pyogenes IID S-23; experiment: as above; type: cell-based; settings: read-out: Minimum Inhibitory Concentration
Summary of the method: as §1

[22] = tested on: Pseudomonas aeruginosa E-2; experiment: as above; type: cell-based; settings: read-out: Minimum Inhibitory Concentration
Summary of the method: as §1

[23] = inoculum 1 × 10^6 cells/ml, read-out: Minimum Inhibitory Concentration
[24] = inoculum 1 × 10^8 cells/ml, read-out: Minimum Inhibitory Concentration
[25] = read-out: Minimum Inhibitory Concentration, inoculum 1 × 10^6 cells/ml
[26] = read-out: Minimum Inhibitory Concentration, inoculum 1 × 10^8 cells/ml

O=C(O)c1cn2c3c(c(N4CCNCC4)ccc3c1=O)CCC2 [B]
1.6 µg/mL: MIC ([2]; ST101, read-out: Minimum Inhibitory Concentration, inoculum 1 × 10^6 cells/ml) | MIC ([2]; ST101, read-out: Minimum Inhibitory Concentration, inoculum 1 × 10^8 cells/ml) | MIC (Klebsiella pneumoniae; [25]) | MIC (Escherichia Coli NIHJ; [26]) | MIC (Proteus rettgeri NIH 96; NIH96, read-out: Minimum Inhibitory Concentration, inoculum 1 × 10^6 cells/ml) | MIC (Proteus rettgeri NIH 96; NIH96, read-out: Minimum Inhibitory Concentration, inoculum 1 × 10^8 cells/ml) | MIC ([9]; IIDOX19, inoculum 1 × 10^6 cells/ml) | MIC (Shigella Sonnei EW 33; inoculum 1 × 10^6 cells/ml) | MIC (Shigella Sonnei EW 33; inoculum 1 × 10^8 cells/ml) | MIC ([17]; IFO12659, inoculum 10^8, read-out: Minimum Inhibitory Concentration) | MIC ([18]; IFO12658, inoculum 10^8, read-out: Minimum Inhibitory Concentration)
0.4 µg/mL: MIC ([12]; IFO12718, inoculum 10^6, read-out: Minimum Inhibitory Concentration) | MIC ([14]; IFO13266, read-out: Minimum Inhibitory Concentration, inoculum 10^6) | MIC ([16]; IFO12981, inoculum 10^6, read-out: Minimum Inhibitory Concentration)
2.5 µg/mL: MIC ([10]; FDA209, read-out: Minimum Inhibitory Concentration, inoculum 1 × 10^8 cells/ml)
6.3 µg/mL: MIC (Klebsiella pneumoniae; [26]) | MIC [6, 26] | MIC ([7]; ATCC10145, read-out: Minimum Inhibitory Concentration, inoculum 1 × 10^6 cells/ml) | MIC [8, 25] | MIC [15]
1100 mg/kg: LD50 [1]
12.5 µg/mL: MIC ([5]; Yersinia enterocolitica, 03, read-out: Minimum Inhibitory Concentration, inoculum 1 × 10^8 cells/ml) | MIC ([7]; ATCC10145, read-out: Minimum Inhibitory Concentration, inoculum 1 × 10^8 cells/ml) | MIC [8, 26] | MIC ([9]; IIDOX19, inoculum 1 × 10^8 cells/ml) | MIC ([10]; FDA209, read-out: Minimum Inhibitory Concentration, inoculum 1 × 10^6 cells/ml) | MIC ([11]; PCI219, read-out: Minimum Inhibitory Concentration, inoculum 1 × 10^6 cells/ml) | MIC ([11]; PCI219, read-out: Minimum Inhibitory Concentration, inoculum 1 × 10^8 cells/ml) | MIC ([19]; IFO12710, read-out: Minimum Inhibitory Concentration, inoculum 10^8)
50 µg/mL: MIC ([13]; IFO12568, read-out: Minimum Inhibitory Concentration, inoculum 10^8)
0.8 µg/mL: MIC [4, 23] | MIC [4, 24] | MIC (Escherichia Coli NIHJ; [25]) | MIC ([12]; IFO12718, inoculum 10^8, read-out: Minimum Inhibitory Concentration) | MIC ([14]; IFO13266, read-out: Minimum Inhibitory Concentration, inoculum 10^8) | MIC ([16]; IFO12981, inoculum 10^8, read-out: Minimum Inhibitory Concentration) | MIC ([17]; IFO12659, inoculum 10^6, read-out: Minimum Inhibitory Concentration) | MIC ([18]; IFO12658, inoculum 10^6, read-out: Minimum Inhibitory Concentration)
25 µg/mL: MIC ([13]; IFO12568, read-out: Minimum Inhibitory Concentration, inoculum 10^6)
3.1 µg/mL: MIC [3] | MIC ([5]; Yersinia enterocolitica, 03, read-out: Minimum Inhibitory Concentration, inoculum 1 × 10^6 cells/ml) | MIC [6, 25] | MIC ([19]; IFO12710, read-out: Minimum Inhibitory Concentration, inoculum 10^6)

CC1Cc2c(Cl)ccc3c(=O)c(C(=O)O)cn1c23 (centres unmarked) [G]
0.4 µg/mL: MIC (Escherichia Coli NIHJ; [23]) | MIC (Proteus rettgeri NIH 96; NIH96, inoculum 1 × 10^8 cells/ml, read-out: Minimum Inhibitory Concentration)
100 µg/mL: MIC ([22]; E2, inoculum 1 × 10^8 cells/ml)
> 100 µg/mL: MIC ([21]; IIDS23, inoculum 1 × 10^6 cells/ml) | MIC ([21]; IIDS23, inoculum 1 × 10^8 cells/ml)
0.2 µg/mL: MIC (Proteus rettgeri NIH 96; NIH96, inoculum 1 × 10^6 cells/ml, read-out: Minimum Inhibitory Concentration)
1.6 µg/mL: MIC (Klebsiella pneumoniae; [23]) | MIC [6, 23] | MIC (Shigella Sonnei EW 33; inoculum 1 × 10^6 cells/ml) | MIC (Shigella Sonnei EW 33; inoculum 1 × 10^8 cells/ml)
12.5 µg/mL: MIC ([20]; NCTC10490, inoculum 1 × 10^6 cells/ml)
50 µg/mL: MIC ([7]; ATCC10145, inoculum 1 × 10^8 cells/ml, read-out: Minimum Inhibitory Concentration) | MIC ([22]; E2, inoculum 1 × 10^6 cells/ml)
3.1 µg/mL: MIC (Klebsiella pneumoniae; [24]) | MIC [6, 24] | MIC ([10]; FDA209, inoculum 1 × 10^6 cells/ml, read-out: Minimum Inhibitory Concentration) | MIC ([10]; FDA209, inoculum 1 × 10^8 cells/ml, read-out: Minimum Inhibitory Concentration)
25 µg/mL: MIC ([20]; NCTC10490, inoculum 1 × 10^8 cells/ml) | MIC ([7]; ATCC10145, inoculum 1 × 10^6 cells/ml, read-out: Minimum Inhibitory Concentration)
0.8 µg/mL: MIC [4, 25] | MIC [4, 26] | MIC (Escherichia Coli NIHJ; [24])

— patent publication US4416884A, “Piperazinylbenzoheterocyclic compounds” (Otsuka Pharmaceutical Co., Ltd., priority 1978, dated 1983)
